Measurements taken from PubChem BioAssay (NCI).
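Method: 48-hour compound exposure of cells in 96-well plates, five concentrations, linear interpolation of endpoints. TGI: total growth inhibition.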

Tests used:
Assay in all cases: growth of human tumour cells (NCI), 48 h
PC-3 prostate = test system: PC-3 prostate
SK-MEL-5 melanoma = test system: SK-MEL-5 melanoma
U251 CNS = test system: U251 CNS
HCC-2998 colon = test system: HCC-2998 colon
HCT-15 colon = test system: HCT-15 colon
OVCAR-8 ovarian = test system: OVCAR-8 ovarian
SF-295 CNS = test system: SF-295 CNS
UACC-257 melanoma = test system: UACC-257 melanoma
NCI-H23 lung = test system: NCI-H23 lung
SNB-75 CNS = test system: SNB-75 CNS
HCT-116 colon = test system: HCT-116 colon
SF-268 CNS = test system: SF-268 CNS
MDA-MB-435 = test system: MDA-MB-435
SN12C renal = test system: SN12C renal
KM12 colon = test system: KM12 colon
RXF 393 renal = test system: RXF 393 renal
OVCAR-4 ovarian = test system: OVCAR-4 ovarian
HL-60(TB) leukemia = test system: HL-60(TB) leukemia
HOP-92 NSCLC = test system: HOP-92 NSCLC
DU-145 prostate = test system: DU-145 prostate

Measured: TGI

COc1ccc(-c2cc(-c3ccco3)c(C#N)c(=S)n2C2OC(CO)C(O)C(O)C2O)cc1 (stereo not drawn)
not listed: HL-60(TB) leukemia | HOP-92 NSCLC | DU-145 prostate
> 100 µM: all other assays above

COC(=O)/C(=C/CC(N=C(c1ccccc1)c1ccccc1)C(=O)OC)N=C(c1ccccc1)c1ccccc1 (stereo not drawn)
83.9 µM: SNB-75 CNS
not listed: PC-3 prostate | MDA-MB-435 | HOP-92 NSCLC | DU-145 prostate
> 100 µM: all other assays above

COc1cc(-c2c(C)c(C)nc(OC)c2C#N)cc(OC)c1OC
not listed: PC-3 prostate | MDA-MB-435 | DU-145 prostate
> 100 µM: all other assays above

Cc1cc(C)n(-c2c(O)ccc(O)c2-n2nc(C)cc2C)n1
not listed: PC-3 prostate | UACC-257 melanoma | HCT-116 colon | MDA-MB-435 | DU-145 prostate
> 100 µM: all other assays above

Cc1nc2ccc(N=NN(C)C)cc2[nH]1
not listed: NCI-H23 lung | HL-60(TB) leukemia | HOP-92 NSCLC
> 100 µM: all other assays above

Cc1ccc(S(=O)(=O)n2cnc(CC(NC(=O)C3CCC(=O)N3C(=O)OCc3ccccc3)C(=O)N3CCCC3C(=O)NN)c2)cc1 (stereo not drawn)
not listed: SF-295 CNS | SF-268 CNS | MDA-MB-435 | RXF 393 renal | OVCAR-4 ovarian | DU-145 prostate
> 100 µM: all other assays above

CSC(=N)N1N=C2c3ccccc3CC[C@@H]2[C@@H]1c1ccccc1
20.4 µM: HOP-92 NSCLC
49.6 µM: SF-268 CNS
34.6 µM: HL-60(TB) leukemia
49.3 µM: OVCAR-4 ovarian
31 µM: U251 CNS | HCT-15 colon
29.4 µM: HCC-2998 colon
27.7 µM: RXF 393 renal
17.7 µM: HCT-116 colon
35.3 µM: UACC-257 melanoma | NCI-H23 lung
29.1 µM: OVCAR-8 ovarian
31.2 µM: SN12C renal
27.9 µM: SF-295 CNS | KM12 colon

CN1CCN(C(=S)N(C)C(=O)c2cccs2)CC1
not listed: PC-3 prostate | SNB-75 CNS | HCT-116 colon | SF-268 CNS | HL-60(TB) leukemia
> 100 µM: all other assays above

CN(CCO)c1nc2c(c(=O)[nH]1)CNCC2
not listed: PC-3 prostate | MDA-MB-435 | DU-145 prostate
> 100 µM: all other assays above

Nc1ccc(C(=O)NN2C(=O)C(Cl)C2c2ccccc2O)cc1 (stereo not drawn)
48 µM: HL-60(TB) leukemia
98.5 µM: HCC-2998 colon
not listed: PC-3 prostate | MDA-MB-435 | RXF 393 renal | DU-145 prostate
> 100 µM: all other assays above

CN1CCC/C1=C1\C(=O)c2cccn2C1=O
not listed: HOP-92 NSCLC
> 100 µM: all other assays above

CCOC(=O)c1c(NC(=O)c2ccc(OC)cc2)sc2c1CCCC2
not listed: HCC-2998 colon | HCT-15 colon | SNB-75 CNS | OVCAR-4 ovarian | HOP-92 NSCLC
> 100 µM: all other assays above

C(/C=N/NC1=NCCCN1)=N\NC1=NCCCN1
not listed: HCT-15 colon | SF-295 CNS | RXF 393 renal | HL-60(TB) leukemia | DU-145 prostate
> 100 µM: all other assays above

Cn1c2cccc3nnc4cccc(c4c32)n1C
not listed: PC-3 prostate | NCI-H23 lung | SNB-75 CNS | MDA-MB-435 | DU-145 prostate
> 100 µM: all other assays above
